The test system of one data set is HIV-IIIb. The experiment in a line: Test A: Antiviral Assay in MT4 Cells. To be noted: Human immunodeficiency virus 1, IIIB, MT4, 120 h. The format is cell-based, HIV-1.
The nature of data set [1]: Atropisomer equilibrium and interconversion in solution. Particulars: rotation along C—C bond between atropisomers. It is filed as physicochemical.
The test system of the next data set is Human Liver Hepatocytes. Briefly: Test D: Metabolic Stability in Cultured Human Liver Hepatocytes. It is filed as in vitro ADME. Particulars: pooled cryopreserved human hepatocytes, […] radiolabelled compound, 1 million cells/mL, 0-6 hours; calculated from stability data.

The structures appear in SMILES notation. pEC50: −log10 of the molar value.

Protocol for HIV-IIIb: 1 mL Aliquots of MT4 cells were pre-infected for 3 hours at 37° C. with 25 μL of cell growth medium (mock-infected) or a fresh 1:250 dilution of an HIV-IIIb concentrated ABI stock (0.004 m.o.i.). Infected and uninfected cells were diluted in cell growth media and 35 μL (2000 cells) was added to each well of the assay plates.
Assay plates were then maintained in a humidified, 5% CO2 incubator at 37° C. After 5 days of incubation, 25 μL of 2× concentrated CellTiter-Glo™ Reagent (catalog #G7573, Promega Biosciences, Inc., Madison, WI) was added to each well of the assay plate. Cell lysis was carried out by incubating at room temperature for 10 minutes and then chemiluminescence was read using an Envision plate reader (PerkinElmer).
Protocol for Human Liver Hepatocytes: Test D. Metabolic Stability in Cultured Human Liver Hepatocytes
The final hepatocyte concentration was 1 million cells/mL. The hepatocyte/compound reaction mixture was dissolved in InVitroGRO™ KHB buffer (catalog #Z99074, BioreclamationIVT, Inc., Baltimore, MD) at pH 7.4. The incubations were performed in duplicate. A cell free control and a positive control were included in the incubations. The incubations were carried out with gentle shaking in a 37° C. incubator under a humid atmosphere of 95% air/5% CO2 (v/v). Aliquots (100 mL) were removed after 0, 1, 3, and 6 hours and added to 200 mL quenching solution that comprised 0.1% (v/v) TFA in 5% water/95% acetonitrile (v/v). The samples were placed on a shaker for 10 min, followed by centrifugation at 3000 g for 30 min. The samples of the supernatant were analyzed on a Dionex HPLC/PerkinElmer Flow Scintillation Analyzer as described below.
The column was a Phenomenex Synergi fusion RP (150×4.6 mm, 4 mm) maintained at 32 degrees Celsius. Mobile Phase A consisted of 0.1% (v/v) TFA in 99% water/1% acetonitrile (v/v). Mobile Phase B consisted of 0.1% (v/v) TFA in 5% water/95% acetonitrile (v/v). […]
Metabolic stability was determined by measuring the change in relative abundance of metabolites and parent over time and calculating from it the rate of disappearance of the parent compound. […]

What is called pEC50 is the negative decadic logarithm of the EC50, by convention in mol/L. The low end stands for a high EC50, the high end for a low EC50. In the case of `Cn1nc(NS(C)(=O)=O)c2c(Cl)ccc(-c3ccc(C#CC(C)(C)O)nc3[C@H](Cc3cc(F)cc(F)c3)NC(=O)Cn3nc(C(F)(F)F)c4c3C(F)(F)[C@@H]3C[C@H]43)c21` [Compound B], the pEC50 in the data set on HIV-IIIb is 8.52. On to `CC(C)(C#Cc1ccc(-c2ccc(Cl)c3c(NS(C)(=O)=O)nn(CC(F)(F)F)c23)c([C@H](Cc2cc(F)cc(F)c2)NC(=O)Cn2nc(C(F)(F)F)c3c2C(F)(F)[C@@H]2C[C@H]32)n1)S(C)(=O)=O` [Compound 1, N—((S)-1-(3-(4-Chloro-3-(methylsulfonamido)-1-(2,2,2-trifluoroethyl)-1H-indazol-7-yl)-6-(3-methyl-3-(methylsulfonyl)but-1-yn-1-yl)pyridin-2-yl)-2-(3,5-difluorophenyl)ethyl)-2-((3bS,4aR)-5,5-difluoro-3-(trifluoromethyl)-3b,4,4a,5-tetrahydro-1H-cyclopropa[3,4]cyclopenta[1,2-c]pyrazol-1-yl)acetamide], for which the rotational energy barrier entry in data set [1] is given as “about 24 kcal/mol”. The “Predicted Human Hepatic Clearance” value in the data set on Human Liver Hepatocytes is 0.17 mL/min/kg.

These data come from patent US12636279B2, “Choline salt forms of an HIV capsid inhibitor” (Gilead Sciences, Inc., priority 2017, dated 2026).
